According to patent US20070082880A1 (priority 2005, published 2007):
pIC50: −log10 of the molar value.

Target: T1, human PKCθ full length enzyme (Homo sapiens, UniProt Q04759)
T1 construct: human PKCθ full length enzyme (Panvera Catalog No. P2996); purchased Panvera P2996
Experiment: PKCθ IMAP Assay
Type: biochemical
Conditions: average value when one or more samples were tested; ATP 6 uM, PKCθ 1 nM
Method in brief: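 IMAP fluorescence polarization after 20 min with binding beads measured phosphorylation of 100 nM 5FAM-peptide. Reactions held 1 nM full-length human PKCθ, 6 uM ATP, 5% DMSO and DTT-containing buffer, 25 min at room temperature. Compounds tested as 2:1 serial dilutions; controls lacked ATP or enzyme.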

T1 sequence (Q04759 whole entry): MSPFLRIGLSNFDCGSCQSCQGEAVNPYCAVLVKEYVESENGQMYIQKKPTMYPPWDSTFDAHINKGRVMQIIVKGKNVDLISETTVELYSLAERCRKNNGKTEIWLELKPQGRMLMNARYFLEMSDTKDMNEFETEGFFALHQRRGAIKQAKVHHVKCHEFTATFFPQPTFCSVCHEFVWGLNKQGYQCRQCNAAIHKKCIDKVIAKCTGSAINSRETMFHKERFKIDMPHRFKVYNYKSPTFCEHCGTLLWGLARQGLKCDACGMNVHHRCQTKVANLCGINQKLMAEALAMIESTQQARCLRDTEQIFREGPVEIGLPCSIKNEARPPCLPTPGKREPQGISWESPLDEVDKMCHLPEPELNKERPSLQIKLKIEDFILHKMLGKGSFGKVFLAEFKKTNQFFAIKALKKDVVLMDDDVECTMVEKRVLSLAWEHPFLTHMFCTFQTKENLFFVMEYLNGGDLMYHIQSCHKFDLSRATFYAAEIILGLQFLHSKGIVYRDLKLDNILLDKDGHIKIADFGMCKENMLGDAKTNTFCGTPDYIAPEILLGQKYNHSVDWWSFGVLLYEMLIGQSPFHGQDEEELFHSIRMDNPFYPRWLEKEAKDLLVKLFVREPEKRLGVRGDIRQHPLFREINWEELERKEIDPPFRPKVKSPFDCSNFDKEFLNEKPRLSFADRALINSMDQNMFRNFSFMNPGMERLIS

Structure (SMILES)	pIC50
CCNC(=O)/C=C/c1cc2c(Nc3ccc4[nH]ccc4c3C)c(C#N)cnc2s1 [Compound 307, (2E)-3-{5-cyano-4-[(4-methyl-1H-indol-5-yl)amino]thieno[2,3-b]pyridin-2-yl}-N-ethylacrylamide]	7.82
Cc1c(Nc2c(C#N)cnc3sc(C(=O)NCCc4ccccc4)cc23)ccc2[nH]ccc12 [Compound 260, 5-cyano-4-[(4-methyl-1H-indol-5-yl)amino]-N-(2-phenylethyl)thieno[2,3-b]pyridine-2-carboxamide]	6.73
Cc1c(Nc2c(C#N)cnc3sc(-c4ccc(NS(C)(=O)=O)cc4)cc23)ccc2[nH]ccc12 [Compound 361, N-(4-{5-cyano-4-[(4-methyl-1H-indol-5-yl)amino]thieno[2,3-b]pyridin-2-yl}phenyl)methanesulfonamide]	7.37
Cc1c(Nc2c(C#N)cnc3sc(/C=C/C(=O)Nc4ccccc4)cc23)ccc2[nH]ccc12 [Compound 303, (2E)-3-{5-cyano-4-[(4-methyl-1H-indol-5-yl)amino]thieno[2,3-b]pyridin-2-yl}-N-phenylacrylamide]	6.95
Cc1c(Nc2c(C#N)cnc3sc(-c4ccc(OC[C@@H](O)CO)cc4)cc23)ccc2[nH]ccc12 [Compound 487, 2-(4-{[(2S)-2,3-dihydroxypropyl]-oxy}phenyl)-4-[(4-methyl-1H-indol-5-yl)amino]thieno[2,3-b]pyridine-5-carbonitrile]	7.39
Cc1c(Nc2c(C#N)cnc3sc(-c4ccc(NS(C)(=O)=O)cc4)c(C)c23)ccc2[nH]ccc12 [Compound 372, N-(4-{5-cyano-3-methyl-4-[(4-methyl-1H-indol-5-yl)amino]thieno[2,3-b]pyridin-2-yl}phenyl)methanesulfonamide]	6.20
Cc1c(Nc2c(C#N)cnc3sc(C#CCCN4CCN(C)CC4)cc23)ccc2[nH]ccc12 [Compound 450, 4-[(4-methyl-1H-indol-5-yl)amino]-2-[4-(4-methylpiperazin-1-yl)but-1-yn-1-yl]thieno[2,3-b]pyridine-5-carbonitrile]	6.90
Cc1c(Nc2c(C#N)cnc3sc(/C=C/C(=O)N4CCN(C)CC4)cc23)ccc2[nH]ccc12 [Compound 295, 4-[(4-methyl-1H-indol-5-yl)amino]-2-[(1E)-3-(4-methylpiperazin-1-yl)-3-oxoprop-1-en-1-yl]thieno[2,3-b]pyridine-5-carbonitrile]	7.37
Cc1c(Nc2c(C#N)cnc3sc(/C=C/C(=O)N(C)C)cc23)ccc2[nH]ccc12 [Compound 305, (2E)-3-{5-cyano-4-[(4-methyl-1H-indol-5-yl)amino]thieno[2,3-b]pyridin-2-yl}-N,N-dimethylacrylamide]	8.70
Cc1c(Nc2c(C#N)cnc3sc(-c4cc(C=O)cc(OC(C)C)c4)cc23)ccc2[nH]ccc12 [Compound 365, 2-(3-formyl-5-isopropoxyphenyl)-4-[(4-methyl-1H-indol-5-yl)amino]thieno[2,3-b]pyridine-5-carbonitrile]	6.99
Cc1c(Nc2c(C#N)cnc3sc(-c4ccc(OC[C@H](C)O)cc4)cc23)ccc2[nH]ccc12 [Compound 488, 2-(4-{[(2S)-2-hydroxypropyl]-oxy}phenyl)-4-[(4-methyl-1H-indol-5-yl)amino]thieno[2,3-b]pyridine-5-carbonitrile]	6.70
COc1ccc(CN(C)C)cc1-c1cc2c(Nc3ccc4[nH]ccc4c3C)c(C#N)cnc2s1 [Compound 457, 2-{5-[(dimethylamino)methyl]-2-methoxyphenyl}-4-[(4-methyl-1H-indol-5-yl)amino]thieno[2,3-b]pyridine-5-carbonitrile]	8.30
Cc1c(Nc2c(C#N)cnc3sc(C(=O)Nc4ccccc4)cc23)ccc2[nH]ccc12 [Compound 258, 5-cyano-4-[(4-methyl-1H-indol-5-yl)amino]-N-phenylthieno[2,3-b]pyridine-2-carboxamide]	6.90
Cc1c(Nc2c(C#N)cnc3sc(/C=C/C(=O)N4CCCCC4)cc23)ccc2[nH]ccc12 [Compound 298, 4-[(4-methyl-1H-indol-5-yl)amino]-2-[(1E)-3-oxo-3-piperidin-1-ylprop-1-en-1-yl]thieno[2,3-b]pyridine-5-carbonitrile]	7.32
Cc1c(Nc2c(C#N)cnc3sc(-c4cccc5[nH]ccc45)cc23)ccc2[nH]ccc12 [Compound 505, 2-(1H-indol-4-yl)-4-[(4-methyl-1H-indol-5-yl)amino]thieno[2,3-b]pyridine-5-carbonitrile]	6.95
COc1c(CN(C)C)cccc1-c1cc2c(Nc3ccc4[nH]ccc4c3C)c(C#N)cnc2s1 [Compound 526, 2-{3-[(dimethylamino)methyl]-2-methoxyphenyl}-4-[(4-methyl-1H-indol-5-yl)amino]thieno[2,3-b]pyridine-5-carbonitrile]	7.92
Cc1cc(CN(C)C)cc(-c2cc3c(Nc4ccc5[nH]ccc5c4C)c(C#N)cnc3s2)c1 [Compound 454, 2-{3-[(dimethylamino)methyl]-5-methylphenyl}-4-[(4-methyl-1H-indol-5-yl)amino]thieno[2,3-b]pyridine-5-carbonitrile]	8.10
COC/C=C/c1cc2c(Nc3ccc4[nH]ccc4c3C)c(C#N)cnc2s1 [Compound 422, 2-[(1E)-3-methoxyprop-1-en-1-yl]-4-[(4-methyl-1H-indol-5-yl)amino]thieno[2,3-b]pyridine-5-carbonitrile]	7.16
CCCCOc1ccccc1-c1cc2c(Nc3ccc4[nH]ccc4c3C)c(C#N)cnc2s1 [Compound 381, 2-(2-butoxyphenyl)-4-[(4-methyl-1H-indol-5-yl)amino]thieno[2,3-b]pyridine-5-carbonitrile]	5.70
Cc1c(Nc2c(C#N)cnc3sc(-c4cccc(NS(C)(=O)=O)c4)c(C)c23)ccc2[nH]ccc12 [Compound 426, N-(3-{5-cyano-3-methyl-4-[(4-methyl-1H-indol-5-yl)amino]thieno[2,3-b]pyridin-2-yl}phenyl)methanesulfonamide]	6.92
Cc1c(Nc2c(C#N)cnc3sc(-c4ccc(CN(C)C)cc4)c(C)c23)ccc2[nH]ccc12 [Compound 460, 2-{4-[(dimethylamino)methyl]phenyl}-3-methyl-4-[(4-methyl-1H-indol-5-yl)amino]thieno[2,3-b]pyridine-5-carbonitrile]	7.21

Next, values leading:

pIC50	Structure (SMILES)
6.96	N#Cc1cnc2sc(-c3cccc(CN4CC[C@H](O)C4)c3)cc2c1Nc1ccc2[nH]ccc2c1 [Compound 171, 2-(3-{[(3S)-3-hydroxypyrrolidin-1-yl]methyl}phenyl)-4-(1H-indol-5-ylamino)thieno[2,3-b]pyridine-5-carbonitrile]
< 4.26	CN(c1ccc2[nH]ccc2c1)c1c(C#N)cnc2sc(-c3ccccc3)cc12 [Compound 122, 4-[1H-indol-5-yl(methyl)amino]-2-phenylthieno[2,3-b]pyridine-5-carbonitrile]
7.10	N#Cc1cnc2sc(-c3cccc(CNCCOCCO)c3)cc2c1Nc1ccc2[nH]ccc2c1 [Compound 183, 2-[3-({[2-(2-hydroxyethoxy)ethyl]amino}methyl)phenyl]-4-(1H-indol-5-ylamino)thieno[2,3-b]pyridine-5-carbonitrile]
5.98	N#Cc1cnc2sc(C(=O)N3CCCC3)cc2c1Nc1ccc2[nH]ccc2c1 [Compound 250, 4-(1H-indol-5-ylamino)-2-(pyrrolidin-1-ylcarbonyl)thieno[2,3-b]pyridine-5-carbonitrile]
6.46	CCN(CC)Cc1cccc(-c2cc3c(Nc4ccc5[nH]ccc5c4)c(C#N)cnc3s2)c1 [Compound 161, 2-{3-[(diethylamino)methyl]phenyl}-4-(1H-indol-5-ylamino)thieno[2,3-b]pyridine-5-carbonitrile]
6.47	N#Cc1cnc2sc(-c3ccc(S(=O)(=O)NCCO)cc3)cc2c1Nc1ccc2[nH]ccc2c1 [Compound 232, 4-[5-cyano-4-(1H-indol-5-ylamino)thieno[2,3-b]pyridin-2-yl]-N-(2-hydroxyethyl)benzenesulfonamide]
7.64	Cc1c(Nc2c(C#N)cnc3sc(-c4ccc(NCCN5CCOCC5)nc4)cc23)ccc2[nH]ccc12 [Compound 352, 4-[(4-methyl-1H-indol-5-yl)amino]-2-{6-[(2-morpholin-4-ylethyl)amino]pyridin-3-yl}thieno[2,3-b]pyridine-5-carbonitrile]
6.87	COc1ccc(-c2cc3c(Nc4ccc5[nH]ccc5c4)c(C#N)cnc3s2)cc1C=O [Compound 337, 2-(3-formyl-4-methoxyphenyl)-4-(1H-indol-5-ylamino)thieno[2,3-b]pyridine-5-carbonitrile]
6.55	N#Cc1cnc2sc(-c3cccc(CN4CCN(CCn5ccnc5)CC4)c3)cc2c1Nc1ccc2[nH]ccc2c1 [Compound 175, 2-[3-({4-[2-(1H-imidazol-1-yl)ethyl]piperazin-1-yl}methyl)phenyl]-4-(1H-indol-5-ylamino)thieno[2,3-b]pyridine-5-carbonitrile]
7.16	N#Cc1cnc2sc(-c3cccc(CN4CC[C@@H](O)C4)c3)cc2c1Nc1ccc2[nH]ccc2c1 [Compound 172, 2-(3-{[(3R)-3-hydroxypyrrolidin-1-yl]methyl}phenyl)-4-(1H-indol-5-ylamino)thieno[2,3-b]pyridine-5-carbonitrile]
5.90	N#Cc1cnc2sc(CN3CCc4ccccc4C3)cc2c1Nc1ccc2[nH]ccc2c1 [Compound 268, 2-(3,4-dihydroisoquinolin-2(1H)-ylmethyl)-4-(1H-indol-5-ylamino)thieno[2,3-b]pyridine-5-carbonitrile]
6.28	N#Cc1cnc2sc(-c3cccc(CN4CCN(CC(=O)N5CCCC5)CC4)c3)cc2c1Nc1ccc2[nH]ccc2c1 [Compound 168, 4-(1H-indol-5-ylamino)-2-(3-{[4-(2-oxo-2-pyrrolidin-1-ylethyl)piperazin-1-yl]methyl}phenyl)thieno[2,3-b]pyridine-5-carbonitrile]
6.26	N#Cc1cnc2sc(-c3cccc(CN4CCOCC4)c3)cc2c1Nc1ccc2[nH]ccc2c1 [Compound 146, 4-(1H-indol-5-ylamino)-2-[3-(morpholin-4-ylmethyl)phenyl]thieno[2,3-b]pyridine-5-carbonitrile]
